This passage reports IC50 and GI50 results from patent publication US20260167619A2, “INDOLINE COMPOUNDS AND DERIVATIVES AS EGFR INHIBITORS” (BeOne Medicines I GmbH, priority 2020, published 2026).

For orientation: IC50 means the concentration needed to halve the response being measured.

Assay [1] concerns the target T1, EGFR (aa668-1210, Invitrogen) (Homo sapiens, UniProt P00533).
T1 construct: EGFR (aa668-1210, Invitrogen); purchased Invitrogen
The assay can be described thus: Biochemical EGFR inhibition assay (TR-FRET), wild-type EGFR. Particulars: ATP at Km, 15 min pre-incubation, 60 min reaction; read-out: WT (Km ATP) IC50. Put shortly:
(§1)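 TR-FRET readout (665/620 nm ratio, Eu-cryptate anti-phosphotyrosine plus XL665-streptavidin) of biotin-poly GT phosphorylation after 60 min at room temperature, ATP at Km, following 15 min compound pre-incubation with enzyme in pH 7.5 HEPES/MgCl2 buffer; four-parameter logistic fitting gave IC50.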
A general note: In TR-FRET formats the signal depends on donor and acceptor labels being close together.

The target of assay [2] is T2, EGFR(L858R_T790M_C797S) (aa695-end, Invitrogen) (Homo sapiens, UniProt P00533, C797S/L858R/T790M).
T2 construct: purchased Invitrogen
T2 sequence (P00533 695-1210 T790M/C797S/L858R): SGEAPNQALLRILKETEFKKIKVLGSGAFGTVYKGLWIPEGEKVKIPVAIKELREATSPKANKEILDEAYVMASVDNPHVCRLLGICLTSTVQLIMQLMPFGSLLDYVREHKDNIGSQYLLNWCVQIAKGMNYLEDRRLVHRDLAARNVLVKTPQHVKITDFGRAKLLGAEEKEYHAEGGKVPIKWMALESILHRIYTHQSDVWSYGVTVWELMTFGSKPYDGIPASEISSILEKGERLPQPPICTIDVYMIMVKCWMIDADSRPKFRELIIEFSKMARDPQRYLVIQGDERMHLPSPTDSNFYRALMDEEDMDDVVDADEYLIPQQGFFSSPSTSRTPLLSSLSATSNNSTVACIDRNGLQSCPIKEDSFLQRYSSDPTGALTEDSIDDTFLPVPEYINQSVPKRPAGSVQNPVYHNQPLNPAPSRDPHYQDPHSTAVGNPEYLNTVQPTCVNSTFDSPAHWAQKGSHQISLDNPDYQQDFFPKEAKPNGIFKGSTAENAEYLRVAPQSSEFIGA
The assay can be described thus: Biochemical EGFR inhibition assay (TR-FRET), L858R/T790M/C797S mutant. To be noted: ATP at Km, 15 min pre-incubation, 60 min reaction; read-out: LR_TM_CS (Km ATP) IC50. Put shortly: as §1

The target of the next assay is BaF3-WT cells (Homo sapiens, UniProt P00533). Description: Cell antiproliferation assay (CellTiter-Glo), BaF3-WT. It is filed as cell-based. To be noted: 48 h treatment, read-out: BaF3-WT IC50. As for the experimental part:
(§2) BaF3 cells are treated with compounds diluted in 0.2% DMSO, dilution is done according to the following protocol: (1) make 500× stock solution in DMSO from 5 mM by 5-fold dilution, total 8 doses were included; (2) make 10× solution in cell culture medium by transferring 2 μl 500× stock solution into 98 μl medium; (3) 10 μl of 10× solution is added to cells and incubate for 48 h.
(§3) After 48 h treatment, add 30 μl CellTiter-Glo reagent[CellTiter-Glo® 2.0, (Promega, Cat #G9242)] to each well; seal the plate and incubate 2 min at room temperature on a plate shaker; Allow the plate to incubate at room temperature for 10 minutes to stabilize the luminescent signal. Record luminescence on BMG PheraStar with luminescence protocol.
(§4) The IC50 value of a compound can be obtained by fitting the following equation
(§5) Wherein, X and Y are known values, and IC50, Hillslope, Top and Bottom are the parameters obtained by fitting with software. Y is the inhibition percentage (calculated from the equation), X is the concentration of the compound; IC50 is the concentration of the compound when the 50% inhibition is reached. The smaller the IC50 value is, the stronger the inhibitory ability of the compound is. Vice versa, the higher the IC50 value is, the weaker the ability the inhibitory ability of the compound is; Hillslope represents the slope of the fitted curve, generally around 1 *; Bottom represents the minimum value of the curve obtained by data fitting, which is generally 0%±20%; Top represents the maximum value of the curve obtained by data fitting, which is generally 100%±20%. The experimental data were fitted by calculating and analyzing with Dotmatics data analysis software.
On the technique in general: ATP-based viability assays read luminescence as a measure of living cells.

The next assay has as its target BaF3-LR_TM_CS cells (Homo sapiens, UniProt P00533, T790M/C797S/L858R, cells depend on it). The assay can be described thus: Cell antiproliferation assay (CellTiter-Glo), BaF3-LR_TM_CS. It is filed as cell-based. To be noted: 48 h treatment, read-out: BaF3-LR_TM_CS IC50. As for the experimental part:
as §2, §3, §4, §5

For another assay, the target named is BaF3-Del_TM_CS cells (Homo sapiens, UniProt P00533, T790M/C797S, cells depend on it, form not given). The assay can be described thus: Cell antiproliferation assay (CellTiter-Glo), BaF3-Del_TM_CS. It is filed as cell-based. Particulars: 48 h treatment, read-out: BaF3-Del_TM_CS IC50. As for the experimental part: as §2, §3, §4, §5
Sequence of BaF3-Del_TM_CS cells (P00533 with tags, fused parts or gaps DEL746-750/T790M/C797S, form open): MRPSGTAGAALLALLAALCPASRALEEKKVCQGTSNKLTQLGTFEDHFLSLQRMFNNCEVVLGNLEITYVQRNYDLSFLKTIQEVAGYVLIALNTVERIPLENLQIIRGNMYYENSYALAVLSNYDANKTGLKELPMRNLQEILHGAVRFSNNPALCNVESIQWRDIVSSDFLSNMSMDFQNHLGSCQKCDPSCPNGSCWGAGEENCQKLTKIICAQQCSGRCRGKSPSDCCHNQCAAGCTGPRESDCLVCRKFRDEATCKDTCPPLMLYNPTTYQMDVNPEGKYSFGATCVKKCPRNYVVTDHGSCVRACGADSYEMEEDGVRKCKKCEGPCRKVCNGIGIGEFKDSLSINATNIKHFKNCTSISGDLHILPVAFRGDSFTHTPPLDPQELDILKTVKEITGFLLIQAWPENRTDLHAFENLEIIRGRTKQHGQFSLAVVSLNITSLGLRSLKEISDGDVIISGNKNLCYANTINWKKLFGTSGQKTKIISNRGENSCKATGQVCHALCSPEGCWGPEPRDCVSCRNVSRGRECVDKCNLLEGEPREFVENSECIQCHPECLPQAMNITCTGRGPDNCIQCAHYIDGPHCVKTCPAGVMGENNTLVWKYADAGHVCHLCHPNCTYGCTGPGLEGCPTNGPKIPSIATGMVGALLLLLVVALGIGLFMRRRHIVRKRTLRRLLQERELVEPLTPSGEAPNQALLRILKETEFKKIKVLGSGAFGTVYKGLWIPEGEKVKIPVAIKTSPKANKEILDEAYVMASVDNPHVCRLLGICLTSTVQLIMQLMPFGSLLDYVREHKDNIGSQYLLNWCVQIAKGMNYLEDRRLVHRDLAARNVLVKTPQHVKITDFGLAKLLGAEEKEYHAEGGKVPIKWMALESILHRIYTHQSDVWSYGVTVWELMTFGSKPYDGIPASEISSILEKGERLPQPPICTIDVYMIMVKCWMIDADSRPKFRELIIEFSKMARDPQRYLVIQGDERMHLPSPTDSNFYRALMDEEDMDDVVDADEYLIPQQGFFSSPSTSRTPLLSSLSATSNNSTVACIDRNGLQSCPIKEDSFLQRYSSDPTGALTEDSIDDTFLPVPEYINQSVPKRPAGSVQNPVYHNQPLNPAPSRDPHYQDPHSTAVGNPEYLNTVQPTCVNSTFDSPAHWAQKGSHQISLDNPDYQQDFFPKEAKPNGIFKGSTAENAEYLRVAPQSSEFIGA
Assay [3] addresses EGFR(Dell9_T790M_C797S) (aa 669-1210, in house) (Homo sapiens, UniProt P00533, T790M/C797S, form not given). The assay can be described thus: Biochemical EGFR inhibition assay (TR-FRET), Del19/T790M/C797S mutant. To be noted: ATP at Km, 15 min pre-incubation, 60 min reaction; read-out: Del_TM_CS (Km ATP) IC50. A digest of the protocol: as §1

Sequence of EGFR(Dell9_T790M_C797S) (aa 669-1210, in house) (P00533 with tags, fused parts or gaps DEL746-750/T790M/C797S, form open): as above
Sequence of BaF3-LR_TM_CS cells (P00533 whole entry T790M/C797S/L858R): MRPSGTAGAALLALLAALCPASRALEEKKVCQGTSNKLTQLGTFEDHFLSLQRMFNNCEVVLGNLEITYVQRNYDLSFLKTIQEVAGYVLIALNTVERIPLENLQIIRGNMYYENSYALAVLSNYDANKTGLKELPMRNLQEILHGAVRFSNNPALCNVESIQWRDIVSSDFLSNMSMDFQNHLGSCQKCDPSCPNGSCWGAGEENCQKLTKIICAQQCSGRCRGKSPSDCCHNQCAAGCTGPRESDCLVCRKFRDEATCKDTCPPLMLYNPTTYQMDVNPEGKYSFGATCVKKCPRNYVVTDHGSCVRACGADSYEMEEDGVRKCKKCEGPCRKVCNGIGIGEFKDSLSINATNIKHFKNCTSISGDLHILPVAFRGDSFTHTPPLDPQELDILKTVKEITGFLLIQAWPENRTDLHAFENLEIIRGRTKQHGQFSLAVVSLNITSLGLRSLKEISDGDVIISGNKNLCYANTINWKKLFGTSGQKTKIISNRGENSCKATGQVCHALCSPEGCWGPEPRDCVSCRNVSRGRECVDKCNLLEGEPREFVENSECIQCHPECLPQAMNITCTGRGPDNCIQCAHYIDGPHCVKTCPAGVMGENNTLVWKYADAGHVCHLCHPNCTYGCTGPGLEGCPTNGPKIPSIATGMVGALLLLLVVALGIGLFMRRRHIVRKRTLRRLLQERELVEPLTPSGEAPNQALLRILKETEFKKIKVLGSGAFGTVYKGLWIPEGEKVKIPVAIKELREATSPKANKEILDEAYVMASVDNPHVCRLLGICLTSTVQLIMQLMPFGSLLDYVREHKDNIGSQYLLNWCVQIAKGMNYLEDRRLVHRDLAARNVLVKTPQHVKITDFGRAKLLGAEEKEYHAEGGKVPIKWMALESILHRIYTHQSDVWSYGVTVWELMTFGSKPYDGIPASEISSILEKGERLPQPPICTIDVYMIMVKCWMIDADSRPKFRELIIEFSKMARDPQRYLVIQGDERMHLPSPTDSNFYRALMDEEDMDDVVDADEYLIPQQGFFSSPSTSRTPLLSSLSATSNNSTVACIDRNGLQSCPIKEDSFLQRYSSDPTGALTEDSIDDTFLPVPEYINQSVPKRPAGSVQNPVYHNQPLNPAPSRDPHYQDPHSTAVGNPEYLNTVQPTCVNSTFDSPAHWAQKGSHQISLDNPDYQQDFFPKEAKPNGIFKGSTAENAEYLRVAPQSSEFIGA
T1 sequence (P00533 668-1210): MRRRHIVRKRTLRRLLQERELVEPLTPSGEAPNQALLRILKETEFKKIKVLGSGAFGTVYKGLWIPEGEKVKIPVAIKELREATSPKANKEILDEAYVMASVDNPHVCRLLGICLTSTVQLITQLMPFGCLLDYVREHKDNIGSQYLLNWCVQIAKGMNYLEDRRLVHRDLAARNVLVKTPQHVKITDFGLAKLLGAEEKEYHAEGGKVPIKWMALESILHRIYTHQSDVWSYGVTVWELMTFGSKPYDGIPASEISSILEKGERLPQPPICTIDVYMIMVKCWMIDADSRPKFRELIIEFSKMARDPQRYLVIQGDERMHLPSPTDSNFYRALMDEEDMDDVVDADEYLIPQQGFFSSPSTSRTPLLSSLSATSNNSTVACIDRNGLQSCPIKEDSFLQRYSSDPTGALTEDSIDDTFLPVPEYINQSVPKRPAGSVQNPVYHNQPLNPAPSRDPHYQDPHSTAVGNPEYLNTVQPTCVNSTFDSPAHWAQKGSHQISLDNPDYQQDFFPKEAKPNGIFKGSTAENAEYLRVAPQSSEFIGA

Turning to `CNC(=O)N1CCc2cccc(Nc3nc(Nc4ccc(N5CCC(N6CCN(C)CC6)CC5)cc4OC)ncc3Cl)c21` [Example 16, 7-((5-chloro-2-((2-methoxy-4-(4-(4-methylpiperazin-1-yl)piperidin-1-yl)phenyl)amino)pyrimidin-4-yl)amino)-N-methylindoline-1-carboxamide], the IC50 in assay [1] is 286 nM; in assay [2] it was 38 nM; in assay [3], 87 nM. The GI50 was determined as 1980 nM at BaF3-WT cells, 1120 nM on BaF3-LR_TM_CS cells and 802 nM at BaF3-Del_TM_CS cells.
With `COc1cc(N2CCC(N3CCN(C)CC3)CC2)ccc1Nc1ncc(Cl)c(Nc2cccc3c2N(C(C)=O)CC3)n1` [Example 17, 1-(7-((5-chloro-2-((2-methoxy-4-(4-(4-methylpiperazin-1-yl)piperidin-1-yl)phenyl)amino)pyrimidin-4-yl)amino)indolin-1-yl)ethan-1-one], the IC50 was 21 nM in assay [1], 6.7 nM in assay [2] and 15 nM in assay [3]. In addition, the figures for the GI50 on BaF3-WT cells, on BaF3-LR_TM_CS cells and at BaF3-Del_TM_CS cells were 1710 nM, 366 nM and 183 nM, respectively.
As for `COc1cc(N2CCC(N3CCN(C)CC3)CC2)ccc1Nc1ncc(Cl)c(Nc2cccc3c2N(S(C)(=O)=O)C(C)C3)n1` (stereo not drawn) [Example 18, 5-chloro-N^2-(2-methoxy-4-(4-(4-methylpiperazin-1-yl)piperidin-1-yl)phenyl)-N^4-(2-methyl-1-(methylsulfonyl)indolin-7-yl)pyrimidine-2,4-diamine], the IC50 in assay [1] came to 2.3 nM; in assay [2], 0.4 nM; in assay [3] it was 0.68 nM. Further, the values for the GI50 on BaF3-WT cells, at BaF3-LR_TM_CS cells and on BaF3-Del_TM_CS cells were 422 nM, 16.5 nM and 7.47 nM, respectively.
Consider `COc1cc(N2CCC(N3CCN(C)CC3)CC2)ccc1Nc1ncc(Cl)c(Nc2cccc3c2N(S(C)(=O)=O)CC3C)n1` (stereo not drawn) [Example 23, 5-chloro-N^2-(2-methoxy-4-(4-(4-methylpiperazin-1-yl)piperidin-1-yl)phenyl)-N^4-(3-methyl-1-(methylsulfonyl)indolin-7-yl)pyrimidine-2,4-diamine], for which the values for the IC50 in assay [1], in assay [2] and in assay [3] were 1.1 nM, 0.54 nM and 0.54 nM, respectively. Also, the GI50 was found to be 453 nM on BaF3-WT cells, 38.4 nM on BaF3-LR_TM_CS cells and 13.3 nM at BaF3-Del_TM_CS cells.
For the compound `COc1cc(N2CCC(N3CCN(C)CC3)CC2)ccc1Nc1ncc(Cl)c(Nc2cccc3c2N(S(C)(=O)=O)CC3)n1` [Example 30, 5-chloro-N^2-(2-methoxy-4-(4-(4-methylpiperazin-1-yl)piperidin-1-yl)phenyl)-N^4-(1-(methylsulfonyl)indolin-7-yl)pyrimidine-2,4-diamine], the IC50 in assay [1] amounted to 0.4 nM; in assay [2], 0.3 nM; in assay [3], 0.2 nM. In addition, the values for the GI50 on BaF3-WT cells, on BaF3-LR_TM_CS cells and at BaF3-Del_TM_CS cells were 411 nM, 37.3 nM and 7.59 nM, respectively.
With `COc1cc(N2CCC(N3CCN(C)CC3)CC2)ccc1Nc1ncc(C(F)(F)F)c(Nc2cccc3c2N(S(C)(=O)=O)CC3)n1` [Example 31, N^2-(2-methoxy-4-(4-(4-methylpiperazin-1-yl)piperidin-1-yl)phenyl)-N^4-(1-(methylsulfonyl)indolin-7-yl)-5-(trifluoromethyl)pyrimidine-2,4-diamine], the IC50 in assay [1] is 3.1 nM; in assay [2], 0.33 nM; in assay [3], 0.47 nM. Further, the GI50 was 522 nM at BaF3-WT cells, 109 nM on BaF3-LR_TM_CS cells and 26.2 nM at BaF3-Del_TM_CS cells.
For `COc1cc(N2CCC(N3CCN(C)CC3)CC2)ccc1Nc1ncc(F)c(Nc2cccc3c2N(S(C)(=O)=O)CC3)n1` [Example 32, 5-fluoro-N^2-(2-methoxy-4-(4-(4-methylpiperazin-1-yl)piperidin-1-yl)phenyl)-N^4-(1-(methylsulfonyl)indolin-7-yl)pyrimidine-2,4-diamine], the concentration for half-maximal inhibition (IC50) was determined as 0.88 nM in assay [1], 1.9 nM in assay [2] and 0.54 nM in assay [3]. The values for the GI50 on BaF3-WT cells, at BaF3-LR_TM_CS cells and at BaF3-Del_TM_CS cells were 570 nM, 246 nM and 62.8 nM, respectively.
Take `COc1cc(N2CCC(N3CCN(C)CC3)CC2)ccc1Nc1ncc(C#N)c(Nc2cccc3c2N(S(C)(=O)=O)CC3)n1` [Example 33, 2-((2-methoxy-4-(4-(4-methylpiperazin-1-yl)piperidin-1-yl)phenyl)amino)-4-((1-(methylsulfonyl)indolin-7-yl)amino)pyrimidine-5-carbonitrile]: the IC50 in assay [1] amounted to 1.3 nM; in assay [2], 1.3 nM; in assay [3] it was 1 nM. For the same compound, the GI50 was 328 nM at BaF3-WT cells, 225 nM at BaF3-LR_TM_CS cells and 68.5 nM on BaF3-Del_TM_CS cells.
On to `COc1cc(N2CCC(N3CCN(C)CC3)CC2)ccc1Nc1ncc(Br)c(Nc2cccc3c2N(S(C)(=O)=O)CC3)n1` [Example 34, 5-bromo-N2-(2-methoxy-4-(4-(4-methylpiperazin-1-yl)piperidin-1-yl)phenyl)-N4-(1-(methylsulfonyl)indolin-7-yl)pyrimidine-2,4-diamine], for which the values for the IC50 in assay [1], in assay [2] and in assay [3] were 0.72 nM, 0.21 nM and 0.24 nM, respectively. Besides, the values for the GI50 on BaF3-WT cells, at BaF3-LR_TM_CS cells and on BaF3-Del_TM_CS cells were 427 nM, 13 nM and 4.25 nM, respectively.
For `COc1cc(N2CCC(N3CCN(C)CC3)CC2)ccc1Nc1ncc(C)c(Nc2cccc3c2N(S(C)(=O)=O)CC3)n1` [Example 35, N^2-(2-methoxy-4-(4-(4-methylpiperazin-1-yl)piperidin-1-yl)phenyl)-5-methyl-N^4-(1-(methylsulfonyl)indolin-7-yl)pyrimidine-2,4-diamine], the values for the concentration for half-maximal inhibition (IC50) in assay [1], in assay [2] and in assay [3] were 0.23 nM, 0.14 nM and 0.14 nM, respectively. The GI50 came out at 604 nM at BaF3-WT cells, 222 nM at BaF3-LR_TM_CS cells and 79.9 nM on BaF3-Del_TM_CS cells.
Take `COc1cc(N2CCC(N(C)C)CC2)ccc1Nc1ncc(Cl)c(Nc2cccc3c2N(S(C)(=O)=O)CC3)n1` [Example 36, 5-chloro-N^2-(4-(4-(dimethylamino)piperidin-1-yl)-2-methoxyphenyl)-N^4-(1-(methylsulfonyl)indolin-7-yl)pyrimidine-2,4-diamine]: the figures for the IC50 in assay [1], in assay [2] and in assay [3] were 0.56 nM, 0.41 nM and 0.22 nM, respectively. Further, the values for the GI50 on BaF3-WT cells, at BaF3-LR_TM_CS cells and on BaF3-Del_TM_CS cells were 414 nM, 25.9 nM and 10 nM, respectively.
As for `COc1cc(N2CCC(N3CCN(C)CC3)CC2)c(C)cc1Nc1ncc(Cl)c(Nc2cccc3c2N(S(C)(=O)=O)CC3)n1` [Example 39, 5-chloro-N^2-(2-methoxy-5-methyl-4-(4-(4-methylpiperazin-1-yl)piperidin-1-yl)phenyl)-N^4-(1-(methylsulfonyl)indolin-7-yl)pyrimidine-2,4-diamine], the IC50 in assay [1] turned out to be 0.36 nM; in assay [2] it was 0.28 nM; in assay [3] it was 0.35 nM. Also, the values for the GI50 at BaF3-WT cells, on BaF3-LR_TM_CS cells and on BaF3-Del_TM_CS cells were 500 nM, 11.4 nM and 4.54 nM, respectively.
Turning to `COc1cc(N2CCC(N3CCN(C)CC3)CC2)c(C)cc1Nc1ncc(Br)c(Nc2cccc3c2N(S(C)(=O)=O)CC3)n1` [Example 40, 5-bromo-N^2-(2-methoxy-5-methyl-4-(4-(4-methylpiperazin-1-yl)piperidin-1-yl)phenyl)-N^4-(1-(methylsulfonyl)indolin-7-yl)pyrimidine-2,4-diamine], the concentration for half-maximal inhibition (IC50) in assay [1] turned out to be 0.78 nM; in assay [2] it was 0.21 nM; in assay [3], 0.36 nM. For the same compound, the GI50 on BaF3-WT cells is 230 nM; at BaF3-LR_TM_CS cells it was 4.91 nM; on BaF3-Del_TM_CS cells it was 1.56 nM.
